Assay results published in ChEMBL document CHEMBL1201862, “PubChem BioAssay data set” (2004).
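Cultured in 96-well plates, cells were exposed to test compound for 48 hours across five concentrations. Abbreviation: GI50, concentration required for 50% inhibition of growth.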 Activity calls are given as the source filed them. Rule as the data show it: active = GI50 up to about 1.1 µM and inactive = higher.

What was measured:
Experiment in all cases: NCI anticancer screen, dose series, 48 h
HL-60 = system: HL-60
SK-OV-3 = system: SK-OV-3
COLO 205 = system: COLO 205
TK-10 = system: TK-10
RPMI-8226 = system: RPMI-8226
OVCAR-3 = system: OVCAR-3
SK-MEL-28 = system: SK-MEL-28
SF-295 = system: SF-295
SNB-78 = system: SNB-78
SF-539 = system: SF-539
SW-620 = system: SW-620
DMS-273 = system: DMS-273
MOLT-4 = system: MOLT-4
M19-MEL = system: M19-MEL
SN12C = system: SN12C
OVCAR-8 = system: OVCAR-8
LXFL 529 = system: LXFL 529
HCC 2998 = system: HCC 2998
KM-20L2 = system: KM-20L2
HCT-15 = system: HCT-15
UACC-257 = system: UACC-257
DLD-1 = system: DLD-1
SNB-19 = system: SNB-19
IGROV-1 = system: IGROV-1
ACHN = system: ACHN
KM12 = system: KM12
RXF 393 = system: RXF 393
LOX IMVI = system: LOX IMVI
NCI-H226 = system: NCI-H226
K562 = system: K562
UACC-62 = system: UACC-62
SNB-75 = system: SNB-75
UO-31 = system: UO-31
786-0 = system: 786-0
HCT-116 = system: HCT-116
U-251 = system: U-251
Malme-3M = system: Malme-3M
SF-268 = system: SF-268
NCI-H23 = system: NCI-H23
M14 = system: M14
SR = system: SR
DMS-114 = system: DMS-114
EKVX = system: EKVX
CCRF-CEM = system: CCRF-CEM
HOP-62 = system: HOP-62
NCI-H460 = system: NCI-H460
A549 = system: A549
NCI-H522 = system: NCI-H522
HOP-18 = system: HOP-18
HOP-92 = system: HOP-92
OVCAR-4 = system: OVCAR-4
SK-MEL-5 = system: SK-MEL-5
HT-29 = system: HT-29
OVCAR-5 = system: OVCAR-5
CAKI-1 = system: CAKI-1
SK-MEL-2 = system: SK-MEL-2
A498 = system: A498

## CCCCCCCCCCCCCCCCNc1cccc2ccccc12
HL-60
  GI50: > 100 µM (inactive)
SK-OV-3
  GI50: > 100 µM (inactive)
COLO 205
  GI50: > 100 µM (inactive)
TK-10
  GI50: > 100 µM (inactive)
RPMI-8226
  GI50: > 100 µM (inactive)
OVCAR-3
  GI50: > 100 µM (inactive)
SK-MEL-28
  GI50: > 100 µM (inactive)
SF-295
  GI50: > 100 µM (inactive)
SNB-78
  GI50: > 100 µM (inactive)
SF-539
  GI50: > 100 µM (inactive)
SW-620
  GI50: > 100 µM (inactive)
DMS-273
  GI50: > 100 µM (inactive)
MOLT-4
  GI50: > 100 µM (inactive)
M19-MEL
  GI50: > 100 µM (inactive)
SN12C
  GI50: > 100 µM (inactive)
OVCAR-8
  GI50: > 100 µM (inactive)
LXFL 529
  GI50: > 100 µM (inactive)
HCC 2998
  GI50: > 100 µM (inactive)
KM-20L2
  GI50: > 100 µM (inactive)
HCT-15
  GI50: > 100 µM
UACC-257
  GI50: > 100 µM (inactive)
DLD-1
  GI50: > 100 µM (inactive)
SNB-19
  GI50: > 100 µM (inactive)
IGROV-1
  GI50: > 100 µM (inactive)
ACHN
  GI50: > 100 µM (inactive)
KM12
  GI50: > 100 µM (inactive)
RXF 393
  GI50: > 100 µM (inactive)
LOX IMVI
  GI50: > 100 µM (inactive)
NCI-H226
  GI50: > 100 µM (inactive)
K562
  GI50: > 100 µM (inactive)
UACC-62
  GI50: > 100 µM (inactive)
SNB-75
  GI50: > 100 µM (inactive)
UO-31
  GI50: > 100 µM (inactive)
786-0
  GI50: > 100 µM (inactive)
HCT-116
  GI50: > 100 µM (inactive)
U-251
  GI50: > 100 µM (inactive)
Malme-3M
  GI50: > 100 µM (inactive)
SF-268
  GI50: > 100 µM (inactive)
NCI-H23
  GI50: > 100 µM (inactive)
M14
  GI50: > 100 µM (inactive)
SR
  GI50: > 100 µM (inactive)
DMS-114
  GI50: > 100 µM (inactive)
EKVX
  GI50: > 100 µM (inactive)
CCRF-CEM
  GI50: > 100 µM (inactive)
HOP-62
  GI50: > 100 µM (inactive)
NCI-H460
  GI50: > 100 µM (inactive)
A549
  GI50: > 100 µM (inactive)
NCI-H522
  GI50: > 100 µM (inactive)

## NNc1cnn(-c2ccccc2)c(=O)c1Cl
HL-60
  GI50: > 100 µM (inactive)
SK-OV-3
  GI50: > 100 µM (inactive)
COLO 205
  GI50: > 100 µM (inactive)
TK-10
  GI50: > 100 µM (inactive)
RPMI-8226
  GI50: > 100 µM (inactive)
HOP-18
  GI50: > 100 µM (inactive)
OVCAR-3
  GI50: > 100 µM (inactive)
SK-MEL-28
  GI50: > 100 µM (inactive)
HOP-92
  GI50: > 100 µM (inactive)
SF-295
  GI50: > 100 µM (inactive)
SNB-78
  GI50: > 100 µM (inactive)
SF-539
  GI50: > 100 µM (inactive)
SW-620
  GI50: > 100 µM (inactive)
DMS-273
  GI50: > 100 µM (inactive)
MOLT-4
  GI50: > 100 µM (inactive)
M19-MEL
  GI50: > 100 µM (inactive)
SN12C
  GI50: > 100 µM (inactive)
OVCAR-8
  GI50: > 100 µM (inactive)
OVCAR-4
  GI50: > 100 µM (inactive)
LXFL 529
  GI50: > 100 µM (inactive)
KM-20L2
  GI50: > 100 µM (inactive)
HCT-15
  GI50: > 100 µM
UACC-257
  GI50: > 100 µM (inactive)
DLD-1
  GI50: > 100 µM (inactive)
SK-MEL-5
  GI50: > 100 µM (inactive)
HT-29
  GI50: > 100 µM (inactive)
IGROV-1
  GI50: > 100 µM (inactive)
ACHN
  GI50: > 100 µM (inactive)
KM12
  GI50: > 100 µM (inactive)
RXF 393
  GI50: > 100 µM (inactive)
OVCAR-5
  GI50: > 100 µM (inactive)
LOX IMVI
  GI50: > 100 µM (inactive)
NCI-H226
  GI50: > 100 µM (inactive)
K562
  GI50: > 100 µM (inactive)
UACC-62
  GI50: > 100 µM (inactive)
SNB-75
  GI50: > 100 µM (inactive)
UO-31
  GI50: > 100 µM (inactive)
786-0
  GI50: > 100 µM (inactive)
HCT-116
  GI50: > 100 µM (inactive)
U-251
  GI50: > 100 µM (inactive)
CAKI-1
  GI50: > 100 µM (inactive)
Malme-3M
  GI50: > 100 µM (inactive)
SF-268
  GI50: > 100 µM (inactive)
SK-MEL-2
  GI50: > 100 µM (inactive)
NCI-H23
  GI50: > 100 µM (inactive)
M14
  GI50: > 100 µM (inactive)
SR
  GI50: > 100 µM (inactive)
A498
  GI50: > 100 µM (inactive)
DMS-114
  GI50: > 100 µM (inactive)
CCRF-CEM
  GI50: > 100 µM (inactive)
HOP-62
  GI50: > 100 µM (inactive)
NCI-H460
  GI50: > 100 µM (inactive)
A549
  GI50: > 100 µM (inactive)
NCI-H522
  GI50: > 100 µM (inactive)
